{
  "source": "patent US10913738B2",
  "about": "(BRISTOL-MYERS SQUIBB COMPANY, priority 2017, dated 2021)",
  "key": {"[1]": {"test_system": "MLKL phosphorylation in HT29-L23 human colorectal adenocarcinoma cells", "test": "MLKL Phosphorylation High-Content Assay", "assay_type": "cell-based", "conditions": "Homo sapiens", "how_it_was_run": "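Cells incubated six hours at 37° C., then phospho-MLKL (S358) immunostained overnight at 4° C. and imaged by high-content microscopy. Phosphorylation quantified as mean circ-ring average intensity ratio; IC50 and Ymax from 4-parameter logistic fits.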"}, "[2]": {"biological_target": "T1, His-GST-TVMV-hRIPK1(1-324) (Homo sapiens, UniProt Q13546)", "T1 construct": "The coding region of human RIPK1(1-324) flanked by NdeI site at 5′ end; made in house; host or cells: Spodoptera frugiperda (Sf9) insect cells, baculovirus", "T1 sequence (Q13546 1-324)": "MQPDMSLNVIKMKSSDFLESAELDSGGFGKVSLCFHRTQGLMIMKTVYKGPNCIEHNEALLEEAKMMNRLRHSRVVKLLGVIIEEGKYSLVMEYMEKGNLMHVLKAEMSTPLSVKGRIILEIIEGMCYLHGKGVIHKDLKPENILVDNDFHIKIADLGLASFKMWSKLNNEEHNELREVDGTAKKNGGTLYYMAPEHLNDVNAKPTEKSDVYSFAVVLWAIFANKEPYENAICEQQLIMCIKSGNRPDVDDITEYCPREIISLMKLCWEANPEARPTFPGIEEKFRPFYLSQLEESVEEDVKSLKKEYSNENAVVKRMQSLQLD", "test": "RIPK1 HTRF Binding Assay"}, "[3]": {"conditions": "x marks IC50 class >200 nM, read-out: pMLKL cell activity >200 nM"}, "[4]": {"conditions": "x marks IC50 class 20-200 nM, read-out: RIPK1 HTRF binding 20-200 nM"}, "[5]": {"conditions": "x marks IC50 class 20-200 nM, read-out: pMLKL cell activity 20-200 nM"}},
  "note": "Where two headings read alike, the source gives them in different places.",
  "data": [
    {"smiles": "[2H]C([2H])([2H])[C@@H](NC(=O)c1cc(-c2ccn3nc(N)nc3c2)cnc1C)c1cccc(OC(F)(F)F)c1", "note": "[Example 311, (R)-5-(2-amino-[1,2,4]triazolo[1,5-a]pyridin-7-yl)-2-methyl-N-(1-(3-(trifluoromethoxy)phenyl)ethyl-2,2,2-H3)nicotinamide]", "values": [
      {"measurement": "IC50", "setting": "[1]; [3]", "result": "> 200", "unit": "nM"},
      {"measurement": "IC50", "setting": "[2]; [4]", "result": "20 to 200", "unit": "nM"}
    ]},
    {"smiles": "Cc1ncc(-c2ccn3nc(N)nc3c2)cc1C(=O)NCc1ccccc1OCC(F)(F)F", "note": "[Example 312, 5-(2-amino-[1,2,4]triazolo[1,5-a]pyridin-7-yl)-2-methyl-N-(2-(2,2,2-trifluoroethoxy)benzyl)nicotinamide]", "values": [
      {"measurement": "IC50", "setting": "[1]; [3]", "result": "> 200", "unit": "nM"},
      {"measurement": "IC50", "setting": "[2]; [4]", "result": "20 to 200", "unit": "nM"}
    ]},
    {"smiles": "Cc1ncc(-c2ccn3nc(N)nc3c2)cc1C(=O)NCc1cccc(OCC(F)(F)F)c1", "note": "[Example 313, 5-(2-amino-[1,2,4]triazolo[1,5-a]pyridin-7-yl)-2-methyl-N-(3-(2,2,2-trifluoroethoxy)benzyl)nicotinamide]", "values": [
      {"measurement": "IC50", "setting": "[1]; [3]", "result": "> 200", "unit": "nM"},
      {"measurement": "IC50", "setting": "[2]; [4]", "result": "20 to 200", "unit": "nM"}
    ]},
    {"smiles": "Cc1ncc(-c2ccn3nc(N)nc3c2)cc1C(=O)NCc1cc(F)cc(F)c1OC1CCCOC1", "note": "(stereo not shown) [Example 314, 5-(2-amino-[1,2,4]triazolo[1,5-a]pyridin-7-yl)-N-(3,5-difluoro-2-((tetrahydro-2H-pyran-3-yl)oxy)benzyl)-2-methylnicotinamide]", "values": [
      {"measurement": "IC50", "setting": "[1]; [5]", "result": "20 to 200", "unit": "nM"},
      {"measurement": "IC50", "setting": "[2]; [4]", "result": "20 to 200", "unit": "nM"}
    ]},
    {"smiles": "Cc1ncc(-c2ccn3nc(N)nc3c2)cc1C(=O)NCc1cc(F)cc(F)c1OC1CC(C)OC(C)C1", "note": "(stereo not shown) [Example 315, 5-(2-amino-[1,2,4]triazolo[1,5-a]pyridin-7-yl)-N-(2-((2,6-dimethyltetrahydro-2H-pyran-4-yl)oxy)-3,5-difluorobenzyl)-2-methylnicotinamide]", "values": [
      {"measurement": "IC50", "setting": "[1]; [5]", "result": "20 to 200", "unit": "nM"},
      {"measurement": "IC50", "setting": "[2]; [4]", "result": "20 to 200", "unit": "nM"}
    ]},
    {"smiles": "Cc1ncc(-c2ccn3nc(N)nc3c2)cc1C(=O)NCc1cc(F)cc(F)c1OC1CCOC(C)C1", "note": "(stereo not shown) [Example 316, 5-(2-amino-[1,2,4]triazolo[1,5-a]pyridin-7-yl)-N-(3,5-difluoro-2-((2-methyltetrahydro-2H-pyran-4-yl)oxy)benzyl)-2-methylnicotinamide]", "values": [
      {"measurement": "IC50", "setting": "[1]; [3]", "result": "> 200", "unit": "nM"},
      {"measurement": "IC50", "setting": "[2]; [4]", "result": "20 to 200", "unit": "nM"}
    ]},
    {"smiles": "Cc1ncc(-c2ccn3nc(N)nc3c2)cc1C(=O)NCc1cc(F)cc(F)c1OC1CCOC1", "note": "(stereo not shown) [Example 317, 5-(2-amino-[1,2,4]triazolo[1,5-a]pyridin-7-yl)-N-(3,5-difluoro-2-((tetrahydrofuran-3-yl)oxy)benzyl)-2-methylnicotinamide]", "values": [
      {"measurement": "IC50", "setting": "[1]; [3]", "result": "> 200", "unit": "nM"},
      {"measurement": "IC50", "setting": "[2]; [4]", "result": "20 to 200", "unit": "nM"}
    ]},
    {"smiles": "Cc1ncc(-c2ccn3nc(N)nc3c2)cc1C(=O)N(C)[C@H](C)c1cc(OC(F)(F)F)ccc1F", "note": "[Example 318, (R)-5-(2-amino-[1,2,4]triazolo[1,5-a]pyridin-7-yl)-N-(1-(2-fluoro-5-(trifluoromethoxy)phenyl)ethyl)-N,2-dimethylnicotinamide]", "values": [
      {"measurement": "IC50", "setting": "[1]; [5]", "result": "20 to 200", "unit": "nM"},
      {"measurement": "IC50", "setting": "[2]; x marks IC50 class >200 nM, read-out: RIPK1 HTRF binding >200 nM", "result": "> 200", "unit": "nM"}
    ]},
    {"smiles": "CCc1ncc(-c2ccn3nc(N)nc3c2)cc1C(=O)N[C@H](C)c1cc(OC(F)(F)F)ccc1F", "note": "[Example 320, (R)-5-(2-amino-[1,2,4]triazolo[1,5-a]pyridin-7-yl)-2-ethyl-N-(1-(2-fluoro-5-(trifluoromethoxy)phenyl)ethyl)nicotinamide]", "values": [
      {"measurement": "IC50", "setting": "[1]; x marks IC50 class <20 nM, read-out: pMLKL cell activity <20 nM", "result": "< 20", "unit": "nM"},
      {"measurement": "IC50", "setting": "[2]; [4]", "result": "20 to 200", "unit": "nM"}
    ]},
    {"smiles": "CCc1ncc(-c2ccn3nc(N)nc3c2)cc1C(=O)N[C@@H](C)c1cc(OC(F)(F)F)ccc1F", "note": "[Example 321, (S)-5-(2-amino-[1,2,4]triazolo[1,5-a]pyridin-7-yl)-2-ethyl-N-(1-(2-fluoro-5-(trifluoromethoxy)phenyl)ethyl)nicotinamide]", "values": [
      {"measurement": "IC50", "setting": "[1]; [5]", "result": "20 to 200", "unit": "nM"},
      {"measurement": "IC50", "setting": "[2]; [4]", "result": "20 to 200", "unit": "nM"}
    ]},
    {"smiles": "CCc1ncc(-c2ccn3nc(N)nc3c2)cc1C(=O)NCc1cc(C(F)(F)F)ccc1F", "note": "[Example 322, 5-(2-amino-[1,2,4]triazolo[1,5-a]pyridin-7-yl)-2-ethyl-N-(2-fluoro-5-(trifluoromethyl)benzyl)nicotinamide]", "values": [
      {"measurement": "IC50", "setting": "[1]; [5]", "result": "20 to 200", "unit": "nM"},
      {"measurement": "IC50", "setting": "[2]; [4]", "result": "20 to 200", "unit": "nM"}
    ]}
  ]
}
